pKi: −log10 of the molar value.
Tests used:
PKC theta kinase = PKC theta kinase (Homo sapiens, UniProt Q04759); experiment: PKC theta coupled-enzyme kinase assay (NADH consumption); format: biochemical; conditions: 240 μM ATP, 30° C.
Procedure: (§1) An assay buffer solution was prepared which consisted of 100 mM HEPES (pH 7.5), 10 mM MgCl2, 25 mM NaCl, 0.1 mM EDTA and 0.01% Brij. An enzyme buffer containing reagents to final assay concentrations of 0.00001% Triton X-100, 200 μg/mL Phosphatidylserine, 20 μg/mL Diacylglycerol, 360 μM NADH, 3 mM phosphoenolpyruvate, 70 μg/mL pyruvate kinase, 24 μg/mL lactate dehydrogenase, 2 mM DTT, 100 μM substrate peptide (ERMRPRKRQGSVRRRV (SEQ ID NO: 1)) and 18 nM PKC theta kinase was prepared in assay buffer. To 60 μL of this enzyme buffer, in a 384 well plate, was added 2 μL of VRT stock solution in DMSO. The mixture was allowed to equilibrate for 10 mins at 30° C. The enzyme reaction was initiated by the addition of 5 μL stock ATP solution prepared in assay buffer to a final assay concentration of 240 μM. Initial rate data was determined from the rate of change of absorbance at 340 nm (corresponding to stoichiometric consumption of NADH) using a Molecular Devices Spectramax plate reader (Sunnyvale, Calif.) over 15 mins at 30° C. For each Ki determination 12 data points covering the VRT concentration range of 0-20 μM were obtained in duplicate (DMSO stocks were prepared from an initial 10 mM VRT stock with subsequent 1:2 serial dilutions). Ki values were calculated from initial rate data by non-linear regression using the Prism software package (Prism 4.0a, Graphpad Software, San Diego, Calif.).

PKC Delta = PKC Delta (Homo sapiens, UniProt Q05655); experiment: PKC delta coupled-enzyme kinase assay (NADH consumption); format: biochemical; conditions: 240 μM ATP, 30° C.
PKC Delta, sequence (Q05655 whole entry): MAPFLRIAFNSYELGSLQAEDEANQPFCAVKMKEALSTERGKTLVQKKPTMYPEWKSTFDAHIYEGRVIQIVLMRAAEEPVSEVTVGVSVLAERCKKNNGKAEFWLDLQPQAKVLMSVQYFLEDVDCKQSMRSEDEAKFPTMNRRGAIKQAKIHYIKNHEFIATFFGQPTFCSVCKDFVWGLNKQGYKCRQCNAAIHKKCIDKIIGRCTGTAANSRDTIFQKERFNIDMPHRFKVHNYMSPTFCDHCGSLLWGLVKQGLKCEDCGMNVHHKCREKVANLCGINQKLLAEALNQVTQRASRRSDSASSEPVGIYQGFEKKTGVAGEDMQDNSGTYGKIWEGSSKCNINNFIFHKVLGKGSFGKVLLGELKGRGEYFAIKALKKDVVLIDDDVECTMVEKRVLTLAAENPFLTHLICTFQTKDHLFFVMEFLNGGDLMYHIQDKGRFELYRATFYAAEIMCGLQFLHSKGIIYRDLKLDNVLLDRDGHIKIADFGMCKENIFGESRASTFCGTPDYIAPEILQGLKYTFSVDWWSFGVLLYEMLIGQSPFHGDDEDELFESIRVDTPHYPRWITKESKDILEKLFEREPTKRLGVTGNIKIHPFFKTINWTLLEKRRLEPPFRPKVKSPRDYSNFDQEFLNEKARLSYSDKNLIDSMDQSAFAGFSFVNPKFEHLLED
Procedure: [The source words this procedure for another target and reports this target under the same test.] as §1

PKC theta kinase, sequence (Q04759 whole entry): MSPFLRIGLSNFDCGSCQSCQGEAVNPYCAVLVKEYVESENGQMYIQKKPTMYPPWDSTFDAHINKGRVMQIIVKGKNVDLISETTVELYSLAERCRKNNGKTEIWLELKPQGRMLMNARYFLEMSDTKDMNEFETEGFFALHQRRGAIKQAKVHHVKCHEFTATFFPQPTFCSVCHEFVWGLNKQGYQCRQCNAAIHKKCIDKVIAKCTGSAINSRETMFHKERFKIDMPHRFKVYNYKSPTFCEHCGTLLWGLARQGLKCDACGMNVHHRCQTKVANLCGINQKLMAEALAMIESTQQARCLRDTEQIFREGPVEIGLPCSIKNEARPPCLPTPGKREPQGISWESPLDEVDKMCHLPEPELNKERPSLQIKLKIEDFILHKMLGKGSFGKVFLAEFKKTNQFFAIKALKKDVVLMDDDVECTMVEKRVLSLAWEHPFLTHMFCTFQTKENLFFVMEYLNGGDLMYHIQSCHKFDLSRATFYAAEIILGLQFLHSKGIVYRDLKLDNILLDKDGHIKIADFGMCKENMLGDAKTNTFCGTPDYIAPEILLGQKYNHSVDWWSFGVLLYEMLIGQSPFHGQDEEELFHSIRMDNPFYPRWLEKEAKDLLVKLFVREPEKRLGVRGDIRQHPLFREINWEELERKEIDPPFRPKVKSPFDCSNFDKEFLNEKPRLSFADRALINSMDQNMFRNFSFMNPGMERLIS

In the case of `CN(CCO)c1ccc(C(F)(F)F)c(-c2n[nH]c3ncccc23)n1` [Compound 58], the pKi (PKC theta kinase) was under 6.15 and the pKi (PKC Delta) was under 6.15.
`N[C@H](CNc1cccc(-c2n[nH]c3ncccc23)n1)c1ccccc1` [Compound 11] showed a pKi (PKC theta kinase) of over 6.30 and a pKi (PKC Delta) of over 6.30.
With `FC(F)(F)c1ccc(NC2CNC2)nc1-c1n[nH]c2ncccc12` [Compound 63] the pKi (PKC theta kinase) was under 6.15 and the pKi (PKC Delta) was under 6.15.
For `OCCNc1cccc(-c2n[nH]c3ncccc23)n1` [Compound 8], the pKi (PKC theta kinase) was under 6.15 and the pKi (PKC Delta) was under 6.15.
`c1cc(NCC2CCCCN2)nc(-c2n[nH]c3ncccc23)c1` (stereo not drawn) [Compound 23] gave a pKi (PKC theta kinase) of over 5.55 and a pKi (PKC Delta) of over 5.55.
`NC1CCC(Nc2ccc(C(F)(F)F)c(-c3n[nH]c4ncccc34)n2)CC1` (stereo not drawn) [Compound 35] gave a pKi (PKC theta kinase) of under 6.15 and a pKi (PKC Delta) of under 6.15.
`NCC1CCC(CNc2cccc(-c3n[nH]c4ncccc34)n2)CC1` (stereo not drawn) [Compound 4] gave a pKi (PKC theta kinase) of over 6.30 and a pKi (PKC Delta) of over 6.30.
Molecule `FC(F)(F)c1ccc(NCC2CCCCN2)nc1-c1n[nH]c2ncccc12` (stereo not drawn) [Compound 32] has a pKi (PKC theta kinase) of under 6.15 and a pKi (PKC Delta) of under 6.15.
`CN(CCC#N)c1ccc(C(F)(F)F)c(-c2n[nH]c3ncccc23)n1` [Compound 75] showed a pKi (PKC theta kinase) of over 6.30 and a pKi (PKC Delta) of over 6.30.
Molecule `FC(F)(F)c1ccc(NCCN2CCCC2)nc1-c1n[nH]c2ncccc12` [Compound 60] has a pKi (PKC theta kinase) of under 6.15 and a pKi (PKC Delta) of under 6.15.
`FC(F)(F)c1ccc(NCC2CCCNC2)nc1-c1n[nH]c2ncccc12` (stereo not drawn) [Compound 31] was tested, and the pKi (PKC theta kinase) was under 6.15 and the pKi (PKC Delta) was under 6.15.
With `FC(F)(F)c1ccc(NCC2CNC2)nc1-c1n[nH]c2ncccc12` [Compound 66] the pKi (PKC theta kinase) was under 6.15 and the pKi (PKC Delta) was under 6.15.
With `CN(CC#N)c1ccc(C(F)(F)F)c(-c2n[nH]c3ncccc23)n1` [Compound 44] the pKi (PKC theta kinase) was over 6.30 and the pKi (PKC Delta) was over 6.30.
For `FC(F)(F)c1ccc(OC[C@@H]2CCCN3CCCC[C@@H]23)nc1-c1n[nH]c2ncccc12` [Compound 74], the pKi (PKC theta kinase) was under 6.15 and the pKi (PKC Delta) was under 6.15.
Work on `NCC(CNc1cccc(-c2n[nH]c3ncccc23)n1)c1ccccc1` (stereo not drawn) [Compound 9] yielded a pKi (PKC theta kinase) of over 7.30 and a pKi (PKC Delta) of over 7.30.
In the case of `NC(=O)c1ccccc1Oc1ccc(C(F)(F)F)c(-c2n[nH]c3ncccc23)n1` [Compound 41], the pKi (PKC theta kinase) was under 6.15 and the pKi (PKC Delta) was under 6.15.
For `CC(C)CC(O)CNc1ccc(C(F)(F)F)c(-c2n[nH]c3ncccc23)n1` (stereo not drawn) [Compound 15], the pKi (PKC theta kinase) was under 6.15 and the pKi (PKC Delta) was under 6.15.
In the case of `NC1CCCC(Nc2cccc(-c3n[nH]c4ncccc34)n2)C1` (stereo not drawn) [Compound 61], the pKi (PKC theta kinase) was over 7.30 and the pKi (PKC Delta) was over 7.30.
`FC(F)(F)c1ccc(N[C@@H]2CCc3ccccc32)nc1-c1n[nH]c2ncccc12` [Compound 85] showed a pKi (PKC theta kinase) of under 6.15 and a pKi (PKC Delta) of under 6.15.
In the case of `CC(C)(CN)COc1ccc(C(F)(F)F)c(-c2n[nH]c3ncccc23)n1` [Compound 54], the pKi (PKC theta kinase) was under 6.15 and the pKi (PKC Delta) was under 6.15.
In the case of `FC(F)(F)c1ccc(NC2CCNCC2)nc1-c1n[nH]c2ncccc12` [Compound 40], the pKi (PKC theta kinase) was over 5.55 and the pKi (PKC Delta) was over 5.55.
`c1cc(NCC2CCCNC2)nc(-c2n[nH]c3ncccc23)c1` (stereo not drawn) [Compound 12] gave a pKi (PKC theta kinase) of over 6.30 and a pKi (PKC Delta) of over 6.30.
With `c1cc(NCC2CCNCC2)nc(-c2n[nH]c3ncccc23)c1` [Compound 14] the pKi (PKC theta kinase) was over 6.30 and the pKi (PKC Delta) was over 6.30.
`CCC(CO)Nc1ccc(C(F)(F)F)c(-c2n[nH]c3ncccc23)n1` (stereo not drawn) [Compound 80] gave a pKi (PKC theta kinase) of under 6.15 and a pKi (PKC Delta) of under 6.15.
